# Key:
# Test in all cases: In vitro antibacterial evaluation: minimum inhibitory concentration (MIC), broth dilution method
# Type in all cases: cell-based
# Streptococcus sp. = system: Streptococcus sp.
# In short: (§1)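 MIC read as lowest drug level preventing visible growth. Organisms at 5×10^5 CFU/mL were exposed to a 64-0.06 μg/mL dilution series in Muller-Hinton II […] following NCCLS broth dilution standard M7-A2.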
# Staphylococcus sp. = settings: broth dilution, 18 hours at 35° C.
# In short: as §1
# Escherichia coli = system: Escherichia coli
# In short: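 Values are minimum inhibitory concentrations, meaning the smallest antibiotic concentration that stops growth of the organism. They come from broth dilution in Muller-Hinton II […] per NCCLS guidance (M7-A2), using 5×10^5 CFU/mL and concentrations from 64 to 0.06 μg/mL.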
# Enterococcus sp. = system: Enterococcus sp.
# In short: as §1
# [1] = broth dilution, inoculum 5×10^5 CFU/mL, 18 hours at 35° C.
compound,measurement,setting,value
"CC(=O)n1cc(C2OCC3OC(OC4C(CO)OC(Oc5ccc(CC6NC(=O)C(C(C)c7ccccc7)NC(=O)CNC(=O)C(CO)NC(=O)C(C(O)C7CNC(=N)N7C7OC(CO)C(O)C(O)C7O)NC(=O)C(C(O)C7CNC(=N)N7)NC6=O)cc5)C(O)C4O)C(O)C(O)C3O2)c2ccccc21 (stereo not drawn) [Example 161, Cyclo[glycyl-β-methylphenylalanyl-O-[4-O-[4,6-O-[1-(acetylindol-3-yl)methylene]hexopyranosyl]hexopyranosyl]tyrosyl-3-(2-iminoimidazolidin-4-yl)seryl-3-(3-hexopyranosyl-2-iminoimidazolidin-4-yl)serylseryl]]",MIC Streptococcus pneumoniae (ATCC 6301),Streptococcus sp.; strain ATCC 6301,0.5 mg/L
same,MIC Streptococcus pneumoniae (GC 1894),Streptococcus sp.; strain GC 1894,0.12 mg/L
same,MIC Streptococcus pyogenes (GC 4563),Streptococcus sp.; strain GC 4563,1 mg/L
same,MIC Streptococcus agalactiae (GC 4564),Streptococcus sp.; strain GC 4564,1 mg/L
same,MIC Streptococcus pneumoniae (GC 4565),Streptococcus sp.; strain GC 4565,0.5 mg/L
same,MIC Coagulase Negative Staphylococcus (GC 4547),Staphylococcus sp.; 5×10^5 CFU/mL,4 mg/L
same,MIC Coagulase Negative Staphylococcus (GC 4548),Staphylococcus sp.; 5×10^5 CFU/mL,2 mg/L
same,MIC Coagulase Negative Staphylococcus (GC 4549),Staphylococcus sp.; 5×10^5 CFU/mL,2 mg/L
same,MIC Coagulase Negative Staphylococcus (GC 4551),Staphylococcus sp.; 5×10^5 CFU/mL,8 mg/L
same,MIC Coagulase Negative Staphylococcus (GC 6257),Staphylococcus sp.; 5×10^5 CFU/mL,2 mg/L
same,MIC Staphylococcus aureus (ATCC 29213),Staphylococcus sp.; 5×10^5 CFU/mL,4 mg/L
same,MIC Staphylococcus aureus (GC 1131),Staphylococcus sp.; 5×10^5 CFU/mL,8 mg/L
same,MIC Staphylococcus aureus (GC 3051),Staphylococcus sp.; 5×10^5 CFU/mL,8 mg/L
same,MIC Staphylococcus aureus (GC 3053),Staphylococcus sp.; 5×10^5 CFU/mL,8 mg/L
same,MIC Staphylococcus aureus (GC 4541),Staphylococcus sp.; 5×10^5 CFU/mL,4 mg/L
same,MIC Staphylococcus aureus (GC 4542),Staphylococcus sp.; 5×10^5 CFU/mL,4 mg/L
same,MIC Staphylococcus aureus (GC 4544),Staphylococcus sp.; 5×10^5 CFU/mL,8 mg/L
same,MIC Staphylococcus aureus (GC 4545),Staphylococcus sp.; 5×10^5 CFU/mL,4 mg/L
same,MIC Staphylococcus aureus-SMITH (GC 4543),Staphylococcus sp.; 5×10^5 CFU/mL,4 mg/L
same,MIC Staphylococcus haemolyticus (GC 4546),Staphylococcus sp.; 5×10^5 CFU/mL,4 mg/L
same,MIC Staphylococcus aureus (ATCC 29213),Staphylococcus sp.; strain ATCC 29213,4 mg/L
same,MIC Staphylococcus aureus (GC 1131),Staphylococcus sp.; strain GC 1131,8 mg/L
same,MIC Staphylococcus aureus (GC 3051),Staphylococcus sp.; strain GC 3051,8 mg/L
same,MIC Staphylococcus aureus (GC 3053),Staphylococcus sp.; strain GC 3053,8 mg/L
same,MIC Staphylococcus aureus (GC 4541),Staphylococcus sp.; strain GC 4541,4 mg/L
same,MIC Staphylococcus aureus (GC 4542),Staphylococcus sp.; strain GC 4542,4 mg/L
same,MIC Staphylococcus aureus-SMITH (GC 4543),Staphylococcus sp.; strain GC 4543,4 mg/L
same,MIC Staphylococcus aureus (GC 4544),Staphylococcus sp.; strain GC 4544,8 mg/L
same,MIC Staphylococcus aureus (GC 4545),Staphylococcus sp.; strain GC 4545,4 mg/L
same,MIC Staphylococcus haemolyticus (GC 4546),Staphylococcus sp.; strain GC 4546,4 mg/L
same,MIC Coagulase Negative Staphylococcus (GC 4547),Staphylococcus sp.; strain GC 4547,4 mg/L
same,MIC Coagulase Negative Staphylococcus (GC 4548),Staphylococcus sp.; strain GC 4548,2 mg/L
same,MIC Coagulase Negative Staphylococcus (GC 4549),Staphylococcus sp.; strain GC 4549,2 mg/L
same,MIC Coagulase Negative Staphylococcus (GC 4551),Staphylococcus sp.; strain GC 4551,8 mg/L
same,MIC Coagulase Negative Staphylococcus (GC 6257),Staphylococcus sp.; strain GC 6257,2 mg/L
same,MIC Escherichia coli (ATCC 25922),Escherichia coli; strain ATCC 25922,>64 mg/L
same,MIC Escherichia coli (GC 4559),Escherichia coli; strain GC 4559,>64 mg/L
same,MIC Escherichi coli (GC 4560),Escherichia coli; strain GC 4560,2 mg/L
same,MIC Enterococcus avium (GC 4558),Enterococcus sp.; [1],16 mg/L
same,MIC Enterococcus faecalis (ATCC 29212),Enterococcus sp.; [1],16 mg/L
same,MIC Enterococcus faecalis (GC 4552),Enterococcus sp.; [1],16 mg/L
same,MIC Enterococcus faecalis (GC 4553),Enterococcus sp.; [1],16 mg/L
same,MIC Enterococcus faecalis (GC 4554),Enterococcus sp.; [1],16 mg/L
same,MIC Enterococcus faecalis (GC 6189),Enterococcus sp.; [1],16 mg/L
same,MIC Enterococcus faecium (GC 2243),Enterococcus sp.; [1],16 mg/L
same,MIC Enterococcus faecium (GC 4556),Enterococcus sp.; [1],16 mg/L
same,MIC Enterococcus faecium (GC 4557),Enterococcus sp.; [1],8 mg/L
same,MIC Enterococcus faecalis (ATCC 29212),Enterococcus sp.; strain ATCC 29212,16 mg/L
same,MIC Enterococcus faecalis (GC 2242),Enterococcus sp.; strain GC 2242,16 mg/L
same,MIC Enterococcus faecium (GC 2243),Enterococcus sp.; strain GC 2243,16 mg/L
same,MIC Enterococcus faecalis (GC 2691),Enterococcus sp.; strain GC 2691,16 mg/L
same,MIC Enterococcus faecalis (GC 3059),Enterococcus sp.; strain GC 3059,16 mg/L
same,MIC Enterococcus faecalis (GC 4552),Enterococcus sp.; strain GC 4552,16 mg/L
same,MIC Enterococcus faecalis (GC 4553),Enterococcus sp.; strain GC 4553,16 mg/L
same,MIC Enterococcus faecalis (GC 4554),Enterococcus sp.; strain GC 4554,16 mg/L
same,MIC Enterococcus faecium (GC 4556),Enterococcus sp.; strain GC 4556,16 mg/L
same,MIC Enterococcus faecium (GC 4557),Enterococcus sp.; strain GC 4557,8 mg/L
same,MIC Enterococcus avium (GC 4558),Enterococcus sp.; strain GC 4558,16 mg/L
same,MIC Enterococcus faecalis (GC 6189),Enterococcus sp.; strain GC 6189,16 mg/L

# Reference: US8247211B2, “Glycopeptide antibiotics” (American Cyanamid Company, priority 2001, dated 2012)
